In PubChem BioAssay AID742 (SRMLSC, 2007):
Active and inactive are the calls of the source. How the calls were made is not given here.

Tests used:
[1] = system: human cells, Her2 expression AlphaScreen; CTG viability; test: Her2 expression suppression with viability readout – cell-based, AlphaScreen, CellTiter-Glo viability, dose response (AID 742); conditions: viability, CellTiter-Glo
[2] = as above; conditions: human cells, Her2 expression AlphaScreen; CTG viability; at 9.62 µM (top of the series)

SMILES	EC50 [1] [µM]	Her2 inhibition [2]
CCn1c(=N)n(CC(=O)C23CC4CC(CC(C4)C2)C3)c2ccccc21	> 9.62	-15.5% (inactive)
CN1CCN(c2ccc(C(N)=O)cc2N)CC1	> 9.62	-16.8% (inactive)
CCCCCn1c(CN2CCCCC2CC)nc2c1c(=O)n(C)c(=O)n2C (stereo unspecified)	> 9.62	-28.1% (inactive)
O=C(NCC(=O)N(CCc1ccccc1)C(C(=O)NC1CCCC1)c1cccnc1)c1ccco1 (stereo unspecified)	> 9.62	-12.6% (inactive)
Nc1nc2n(n1)C(c1cccs1)CC(c1ccc(Br)cc1)N2 (stereo unspecified)	> 9.62	-10.7% (inactive)
CCOc1cc(C(=O)NCCOC)ccc1OC	> 9.62	-7.59% (inactive)
Cc1onc(-c2ccccc2)c1C(=O)n1nnc2ccccc21	> 9.62	-24.8% (inactive)
CC1(C)CC(=O)C2=C(C1)OC(=O)C2(NC(=O)c1cccs1)C(F)(F)F (stereo unspecified)	> 9.62	-18.5% (inactive)
Cc1nn(C)c(C)c1Sc1ccc(Br)cc1	> 9.62	-6.9% (inactive)
CN1/C(=C/C(=O)c2nc(S(C)(=O)=O)ncc2Cl)C(C)(C)c2ccccc21	> 9.62	23.3% (inactive)
C=CCN=C(NC#N)SCc1ccccc1Cl	> 9.62	0.27% (inactive)
CCn1c(C)cc(=S)c2ccccc21	> 9.62	-25.6% (inactive)
CC1(C)CC(=O)C2=C(C1)OC1=C(C(=O)CC(C)(C)C1)C2c1ccc(O)cc1O	> 9.62	10.8% (inactive)
CC(C)(C)NC(=O)CSc1ncnc2c1nnn2Cc1ccccc1Cl	> 9.62	-10.2% (inactive)
C=CCSC1=N/C(=C\C=C\c2ccco2)C(=O)S1	> 9.62	28.4% (inactive)
FC(F)(F)c1ccc(N2CCOCC2)c(Nc2nc3ccccc3n3cnnc23)c1	> 9.62	-15.5% (inactive)
CCN(C(=O)COC(=O)c1cc(C)n(-c2ccc(F)cc2)c1C)C1CCS(=O)(=O)C1 (stereo unspecified)	> 9.62	-2.5% (inactive)
CCN(CC)c1ccc2c(c1)oc(=O)c1c(Cl)cc(=O)oc12	> 9.62	-20.7% (inactive)
O=C1C2=C(SCCS2)C(=O)N1CCCO	> 9.62	-25% (inactive)

SMILES	EC50 [1] [µM]	Her2 inhibition [2]
C=CCc1cccc2cc(C(=O)NC)c(=O)oc12	> 9.62	3.58% (inactive)
Cc1c(-c2cccs2)[n+](=O)c2c(n1[O-])CCCC2	> 9.62	-49% (inactive)
c1ccc(-n2c(-c3ccncc3)nnc2N2CCOCC2)cc1	> 9.62	-8.89% (inactive)
CCOC(=O)Cn1nnnc1C(CC)N(Cc1cccs1)Cc1cc2ccc(OC)cc2[nH]c1=O (stereo unspecified)	> 9.62	22.9% (inactive)
O=S(=O)(NCc1ccco1)c1cccc2cccnc12	> 9.62	-18.5% (inactive)
Nc1c(C(=O)Nc2ccccc2)sc2nc(-c3ccco3)ccc12	> 9.62	18.3% (inactive)
O=C1C2ON(c3ccccc3)C(c3cccnc3)C2C(=O)N1c1ccc(Cl)c(Cl)c1 (stereo unspecified)	> 9.62	-16.1% (inactive)
c1cnc(-c2nnc3n2CCCCC3)cn1	> 9.62	5.42% (inactive)
N=c1c2c(-c3ccccc3)c(-c3ccccc3)n(Cc3ccco3)c2ncn1Cc1ccco1	> 9.62	-27.8% (inactive)
Cc1ccc(/C=C/C2=Cc3c(sc(NC(=O)CSc4n[nH]c(N)n4)c3C#N)C(C)(C)C2)o1	> 9.62	-0.68% (inactive)
Cc1ccc2[nH]cc(C(=O)CN3CCN(c4ccccn4)CC3)c2c1	> 9.62	-23.7% (inactive)
O=C(CCCCCn1c(=S)[nH]c2cc3c(cc2c1=O)OCO3)N1CCN(C2CCCCC2)CC1	> 9.62	4.12% (inactive)
COC(=O)CC1=C(C(=O)OC)C(c2ccc3c(c2Cl)OCO3)C(C#N)=C(N)O1 (stereo unspecified)	> 9.62	-10.7% (inactive)
CN(C)CCCN1c2ccccc2Sc2ccc(C(F)(F)F)cc21	> 9.62	0.74% (inactive)
O=C(Nc1ccc2c(c1)OCO2)c1cnn2cccnc12	> 9.62	-5.1% (inactive)
CCOC(=O)N1CCN(CCC(=O)c2ccc(Cl)cc2)CC1	> 9.62	9.27% (inactive)
Cc1ccc2nc(Nc3ccccc3)c(/C=N/O)c(=O)n2c1	> 9.62	-10.3% (inactive)
Cc1cccc(Nc2nc(-c3ccccn3)cs2)n1	> 9.62	0.46% (inactive)
C=CCOC(=O)C1=C(C)Nc2nnnn2C1c1cc(OC)ccc1OC (stereo unspecified)	> 9.62	-8.6% (inactive)
